Assay results: patent US20230180804A1, “FLAVOR COMPOSITION, AND FOOD AND BEVERAGE” (TAKASAGO INTERNATIONAL CORPORATION, priority 2020, published 2023)

How the values were obtained:
olfactory receptor OR9Q2 = molecular target: T1, olfactory receptor OR9Q2 (Homo sapiens, UniProt Q8NGE9); test: OR9Q2 response inhibitory effect for p-cresol, luciferase reporter gene assay; type: cell-based; details: p-cresol 100 µM mixed with various concentrations of compound; cells expressing OR9Q2; ratio of Fold Increase value (FIGS. 1 to 11)
T1 construct: 20 N-terminal amino acid residues of bovine rhodopsin (Rho tag); expressed in transfected cells; host or cells: HEK293T
T1 sequence (Q8NGE9 1-314): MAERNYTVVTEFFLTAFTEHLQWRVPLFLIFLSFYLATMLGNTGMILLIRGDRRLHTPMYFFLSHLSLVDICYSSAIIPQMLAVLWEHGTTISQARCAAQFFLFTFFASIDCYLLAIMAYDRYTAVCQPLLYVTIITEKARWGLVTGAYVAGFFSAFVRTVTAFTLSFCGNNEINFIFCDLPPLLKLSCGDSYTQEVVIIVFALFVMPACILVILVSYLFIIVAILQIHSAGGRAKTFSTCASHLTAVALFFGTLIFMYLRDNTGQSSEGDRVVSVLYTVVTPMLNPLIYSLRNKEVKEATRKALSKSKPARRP
Procedure: The human olfactory receptor gene was obtained by cloning from Human Genomic DNA: Female (Promega) by PCR method based on the sequence information registered in GenBank. The 20 N-terminal amino acid residues of bovine rhodopsin were incorporated into the pME18S vector, and the obtained human olfactory receptor gene was incorporated downstream thereof to obtain a human olfactory receptor gene expression vector.
In 10 µL of Opti-MEM I (gibco), 0.05 µg of human olfactory receptor gene expression vector, 0.01 µg of RTP1S vector, 0.01 µg firefly luciferase vector pGL4.29 (Promega) containing cAMP response element promoter, and 0.005 µg of Renilla luciferase vector pGL4.74 (Promega) containing thymidine kinase promoter were dissolved to prepare a gene solution (for one well). HEK293T cells were seeded at 100 µL each in a 96-well plate (Biocoat, Coming) at the number of cells reaching confluence after 24 hours, and a gene solution was added to each well by the lipofection method according to the usage of Lipofectamine 3000 to introduce genes into the cells, and the cells were cultured at 37° C. in a 5% carbon dioxide atmosphere for 24 hours.
After removing the culture medium, the resultant was prepared with CD293 (gibco) medium ([…] added) so as to have a concentration for measuring the aroma substance to be tested, 50 µL of which was added each and stimulated for 3 hours, and then luciferase activity was measured according to the method of using the Dual-Luciferase Reporter Assay System (Promega). The response intensity of the olfactory receptor polypeptide was expressed as a Fold Increase value obtained by dividing the luciferase activity produced by stimulating the aroma substance by the luciferase activity produced in the test system containing no aroma substance.
p-Cresol at 100 µM was mixed with various concentrations of 1-oxacycloheptadecan-7-en-2-one, 1-oxacycloheptadecan-8-en-2-one, isoambrettolide, pentalide, muscone, civetone, 8-2-decenolactone, cinnamic aldehyde, […], sclareolide, and ethyl maltol, and receptor responses were measured in cells expressing OR9Q2. The ratio of the Fold Increase value in the test in which each compound was mixed was calculated, where the Fold Increase value in the test in none of these compounds was mixed was set to 100. FIGS. 1 to 11 present the results.

[1] = Sensory evaluation of p-cresol odor masking in p-cresol-containing citrus-flavored beverage; details: for p-Cresol Odor Intensity: beverage with 50 ppb p-cresol, average score of 7 panelists, scale 0-4; for concentration at which the compound masks the p-cresol odor and does not affect the citrus flavor, lower limit / concentration at which the compound masks the p-cresol odor and does not affect the citrus flavor, upper limit: citrus-flavored beverage with 50 ppb p-cresol
Procedure: To 2 g of lemon flavor obtained by making lemon oil into an essence, purified water was added to adjust the total amount to 1000 ml. To this citrus-flavored beverage, p-cresol adjusted to a concentration of 1% by mass with 95% ethanol was added to 50 ppb in the citrus-flavored beverage. To this p-cresol-containing citrus-flavored beverage, 1-oxacycloheptadecan-7-en-2-one was added at the concentrations presented in Table 1 to confirm the p-cresol odor intensity (masking effect) and the influence on the citrus flavor of each sample.
For the test, seven skilled panelists were selected to perform sensory evaluation. The p-cresol odor intensity of the p-cresol-containing citrus-flavored beverage without added l-oxacycloheptadecan-7-en-2-one was determined as “Rating: 4,” and the p-cresol odor intensity of the p-cresol-free citrus-flavored beverage was determined as “Rating: 0,” and the p-cresol odor intensity (masking effect) of each sample was relatively evaluated according to the following evaluation criteria.
In addition, the influence of the citrus-flavored beverage on the citrus flavor was evaluated absolutely according to the following evaluation criteria for the presence or absence of off- flavor other than p-cresol odor and citrus flavor (Off-Flavor Intensity).
The results are as in Table 1, presenting the average score of the evaluation results for each panelist.

[2] = Sensory evaluation of p-cresol odor masking in p-cresol-containing citrus-flavored confectionery (tablet); details: for p-Cresol Odor Intensity: tablet with 200 ppb p-cresol, average score of 6 panelists, scale 0-4; for concentration at which the compound masks the p-cresol odor and does not affect the citrus flavor, lower limit / concentration at which the compound masks the p-cresol odor and does not affect the citrus flavor, upper limit: citrus-flavored confectionery (tablet) with 200 ppb p-cresol
Procedure: Lemon cold-pressed oil was added to the tablet having the composition presented in Table A at a concentration of 1 % by mass, and medium chain fatty acid triglycerides (MCT) was used to adjust p-cresol to a concentration of 0.1%, which was further added so as to reach 200 ppb in the citrus flavored confectionery. To this p-cresol-containing citrus-flavored confectionery, 1-oxacycloheptadecan-7-en-2-one was added at the concentrations presented in Table 12, and then tableting was performed to confirm the p-cresol odor intensity (masking effect) and the influence on the citrus flavor of each sample.
Six skilled panelists were selected to perform the same sensory evaluation as in Example 1. The results are as in Table 12, presenting the average score of the evaluation results for each panelist.

[3] = Sensory evaluation of p-cresol odor masking in p-cresol-containing grated raw ginger; details: for p-Cresol Odor Intensity: grated ginger with 600 ppb p-cresol, average score of 9 panelists, scale 0-4
Procedure: To commercially available grated raw ginger, p-cresol adjusted to a concentration of 0.1% with 95% ethanol was added to a concentration of 600 ppb in the ginger. To this p-cresol-containing ginger, 1-oxacycloheptadecan-8-en-2-one was added at the concentrations presented in Table 16 to confirm the p-cresol odor intensity (masking effect) and the influence on the ginger flavor of each sample.
Nine skilled panelists were selected to perform the same sensory evaluation as in Example 1. The results are as in Table 16, presenting the average score of the evaluation results for each panelist.

[4] = Sensory evaluation of p-cresol odor masking in p-cresol-containing lemon dressing; details: lemon dressing with 500 ppb p-cresol; for p-Cresol Odor Intensity: average score of 9 panelists, scale 0-4
Procedure: To a commercially available lemon dressing, p-cresol adjusted to a concentration of 0.1% with 95% ethanol was added to 500 ppb in the lemon dressing. To this p-cresol-containing lemon dressing, l-oxacycloheptadecan-8-en-2-one was added at the concentrations presented in Table 18 to confirm the p-cresol odor intensity (masking effect) and the influence on the citrus flavor of each sample.
Nine skilled panelists were selected to perform the same sensory evaluation as in Example 1. The results are as in Table 18, presenting the average score of the evaluation results for each panelist.

[5] = grated raw ginger with 600 ppb p-cresol

| Compound | effect of suppressing the response of OR9Q2 to p-cresol (olfactory receptor OR9Q2) | p-Cresol Odor Intensity ([1]; 1 ppb added) [points] | p-Cresol Odor Intensity ([1]; 1 ppm added) [points] | p-Cresol Odor Intensity ([1]; 10 ppb added) [points] | p-Cresol Odor Intensity ([1]; 10 ppm added) [points] | p-Cresol Odor Intensity ([1]; 10 ppt added) [points] | p-Cresol Odor Intensity ([1]; 100 ppb added) [points] | p-Cresol Odor Intensity ([1]; 100 ppt added) [points] | concentration at which the compound masks the p-cresol odor and does not affect the citrus flavor, lower limit [1] [ppt] | concentration at which the compound masks the p-cresol odor and does not affect the citrus flavor, upper limit [1] | p-Cresol Odor Intensity ([1]; 0.01 ppt added) [points] | p-Cresol Odor Intensity ([1]; 0.1 ppt added) [points] | p-Cresol Odor Intensity ([1]; 1 ppt added) [points] | p-Cresol Odor Intensity ([2]; 4 ppb added) [points] | p-Cresol Odor Intensity ([2]; 40 ppb added) [points] | p-Cresol Odor Intensity ([2]; 40 ppt added) [points] | p-Cresol Odor Intensity ([2]; 400 ppb added) [points] | p-Cresol Odor Intensity ([2]; 400 ppt added) [points] | concentration at which the compound masks the p-cresol odor and does not affect the citrus flavor, lower limit [2] | concentration at which the compound masks the p-cresol odor and does not affect the citrus flavor, upper limit [2] [ppb] | also measured |
| --- | --- | --- | --- | --- | --- | --- | --- | --- | --- | --- | --- | --- | --- | --- | --- | --- | --- | --- | --- | --- | --- |
| CC1(C)CCC[C@]2(C)[C@H]3CC(=O)O[C@]3(C)CC[C@@H]12 [Sclareolide, sclareolide] | suppressing the response of OR9Q2 to p-cresol in a concentration-dependent manner | 2.1 | 1.0 | 1.9 | 0.4 | 3.6 | 1.1 | 2.6 | ≥ 100 | ≤ 1 ppm | – | – | – | – | – | – | – | – | – | – | – |
| CCc1occc(=O)c1O [Ethyl Maltol, ethyl maltol] | suppressing the response of OR9Q2 to p-cresol in a concentration-dependent manner | 2.3 | 1.4 | 2.0 | 1.3 | 3.7 | 1.6 | 2.7 | ≥ 100 | ≤ 10 ppm | – | – | – | – | – | – | – | – | – | – | p-Cresol Odor Intensity ([1]; 100 ppm added): 0.4 points |
| O=C1CCCCCC=CCCCCCCCCO1 [1-Oxacycloheptadecan-8-En-2-One, 1-oxacycloheptadecan-8-en-2-one] | – | 1.1 | – | 0.7 | – | 1.9 | 0.4 | 1.4 | ≥ 0.1 | ≤ 1 ppb | 3.6 | 2.9 | 2.6 | 2.5 | 1.8 | 3.3 | 1.7 | 3.2 | ≥ 4 ppb | ≤ 400 | p-Cresol Odor Intensity ([3]; 1 ppb added): 1.7 points; p-Cresol Odor Intensity ([3]; 1 ppt added): 3.2 points; p-Cresol Odor Intensity ([3]; 10 ppb added): 1.4 points; p-Cresol Odor Intensity ([3]; 10 ppt added): 2.4 points; p-Cresol Odor Intensity ([3]; 100 ppt added): 2.3 points; concentration at which the compound masks the p-cresol odor and does not affect the ginger flavor, lower limit [3, 5]: ≥ 10 ppt; concentration at which the compound masks the p-cresol odor and does not affect the ginger flavor, upper limit [3, 5]: ≤ 1 ppb; p-Cresol Odor Intensity ([4]; 1 ppb added): 1.1 points; p-Cresol Odor Intensity ([4]; 1 ppt added): 2.9 points; p-Cresol Odor Intensity ([4]; 10 ppb added): 1.0 points; p-Cresol Odor Intensity ([4]; 10 ppt added): 2.2 points; p-Cresol Odor Intensity ([4]; 100 ppt added): 1.6 points; concentration at which the compound masks the p-cresol odor and does not affect the citrus flavor, lower limit [4]: ≥ 1 ppt; concentration at which the compound masks the p-cresol odor and does not affect the citrus flavor, upper limit [4]: ≤ 10 ppb |
| O=C1CCCCC=CCCCCCCCCCO1 [1-Oxacycloheptadecan-7-En-2-One, 1-oxacycloheptadecan-7-en-2-one] | – | 1.3 | – | 0.9 | – | 2.0 | 0.7 | 1.7 | ≥ 0.1 | ≤ 1 ppb | 3.7 | 2.7 | 2.4 | 2.5 | 2.0 | 3.2 | 1.3 | 2.7 | ≥ 400 ppt | ≤ 400 | – |
| ambrettolide | suppressing the response of OR9Q2 to p-cresol in a concentration-dependent manner | – | – | – | – | – | – | – | – | – | – | – | – | – | – | – | – | – | – | – | – |
